# According to patent US20130121961A1, “TREATMENT MODALITIES TO PREVENT OR TREAT LOSS OF CARDIOVASCULAR FUNCTION IN AGING HUMANS” (THE JOHNS HOPKINS UNIVERSITY, priority 2011, published 2013):
# Entries after “also recorded” stand apart in the source; their conditions may differ. Where two headings read alike, the source gives them in different places.
# Legend:
# IL-10(tm/tm) mouse aorta = experiment: Force-tension myography, ACH dependent vasorelaxation of phenylephrine pre-constricted IL-10(tm/tm) aortic rings; assay type: cell-based; conditions: for Effect on endothelial dependent vasorelaxation / Effect on vasoconstrictive responses to ACH: old IL-10(tm/tm) aortas; for EC50 / Emax: Mus musculus
# Description: (§1) Animals: Age-matched IL-10 deficient (IL-10(tm/tm)); B6.129P2IL10tm1Cgn/J and control mice (C576L6; WT) were obtained from Jackson Laboratories (Bar Harbor, Me., USA). IL-10(tm/tm) mice used are homozygous for the IL10tm1Cgn targeted mutation. These mice were housed in Association for Assessment and Accreditation of Laboratory Animal Care International accredited facilities and pathogen contact prevention (prophylaxis from infections, inflammatory bowel disease and early mortality) was achieved under specific pathogen-free (SPF) barrier conditions until terminal experiments were carried out. It is known that the pro-inflammatory potential achieved by the lack of IL-10 in this mouse model can be attributed to activation of TNF-α and IL-1β synthesis via IFN-γ, which is produced in massive amounts and also is important inantigen presentation and pathogen death via activation of macrophages. Animals with any signs of inflammatory/infectious disease were ruled out of the study. The study was performed at approximately 3-4 months (young) and 9 months of age or greater (old).
# (§2) Vascular endothelial function was assessed using force-tension myography. Mouse aortas were isolated and cleaned in ice-cold Krebs-Ringer-bicarbonate solution containing the following (in mM): 118.3 NaCI, 4.7 KCI, 1.6 CaCl2, 1.2 KH2 PO4, 25 NaHCO3, 1.2 MgSO4, and 11.1 dextrose. Vascular tension changes were determined as previously described (J Appl Physiol, 2000. 89(6): p. 2382-90). Briefly, one end of the aortic rings was connected to a transducer, and the other to a micromanipulator. The aorta was immersed in a bath filled with constantly oxygenated Krebs buffer at 37° C. Equal size thoracic aortic rings (2 mm) were mounted using a microscope, ensuring no damage to the smooth muscle or endothelium. The aortas were passively stretched to an optimal resting tension using the micromanipulator, after which a dose of 60 mM KCI was administered, and repeated after a wash with Krebs buffer. After these washes, the vessels were allowed to equilibrate for 20-30 min. Phenylephrine (1 μM) was administered to induce vasoconstriction. A dose-dependent response (1 nM to 10 μM), with the muscarinic agonist, ACH, was then performed. The responses were repeated in the presence of inhibitors. Relaxation responses were calculated as a percentage of tension following pre-constriction. Sigmoidal dose-response curves were fitted to data with the minimum constrained to 0.
# (§3) Vascular Studies. In ex vivo myograph experiments, measured tension represents a balance between vasorelaxant and vasoconstrictor dependent function and mediators. In phenylephrine pre-constricted isolated mouse aorta, ACH stimulates the release of endothelial factors, which mediate vasorelaxation as a result of greater relaxation than constriction.
# WT mouse aorta = experiment: Force-tension myography, ACH dependent vasorelaxation of phenylephrine pre-constricted WT aortic rings; assay type: cell-based
# Description: as §1, §2, §3
# [1] = pre-incubation with 100 nM SQ29548
# [2] = pre-incubation with 5 μM nimesulide
# [3] = pre-incubation with 3 μM indomethacin
smiles,measurement,setting,value
O=C(O)CCC/C=C\C[C@@H]1[C@H](CNNC(=O)Nc2ccccc2)[C@H]2CC[C@@H]1O2 [SQ29548],Effect on endothelial dependent vasorelaxation,IL-10(tm/tm) mouse aorta; [1],enhanced endothelial dependent vasorelaxation; also recorded: significantly improved endothelial dependent vasorelaxation
same,Effect on vasoconstrictive responses to ACH,IL-10(tm/tm) mouse aorta; [1],abolished the vasoconstrictive responses
CS(=O)(=O)Nc1ccc([N+](=O)[O-])cc1Oc1ccccc1 [nimesulide],Effect on endothelial dependent vasorelaxation,IL-10(tm/tm) mouse aorta; [2],enhanced endothelial dependent vasorelaxation; also recorded: significantly improved endothelial dependent vasorelaxation
same,Effect on vasoconstrictive responses to ACH,IL-10(tm/tm) mouse aorta; [2],abolished the vasoconstrictive responses
COc1ccc2c(c1)c(CC(=O)O)c(C)n2C(=O)c1ccc(Cl)cc1 [indomethacin],Effect on endothelial dependent vasorelaxation,IL-10(tm/tm) mouse aorta; [3],significantly improved endothelial dependent vasorelaxation
same,Effect on vasoconstrictive responses to ACH,IL-10(tm/tm) mouse aorta; [3],abolished the vasoconstrictive responses
"CC(=O)OCC[N+](C)(C)C [ACH, Acetylcholine]",EC50,"WT mouse aorta; old WT mice aortas, n=6, read-out: EC50 of ACH mediated vasorelaxation",251 nM
same,Emax,"WT mouse aorta; old WT mice aortas, n=6, read-out: Emax of ACH mediated vasorelaxation",98.5 ± 14.1%
same,EC50,"WT mouse aorta; young WT mice aortas, phenylephrine pre-constricted, read-out: EC50 of ACH dose response (vasorelaxation)",126 nM
same,Emax,"WT mouse aorta; young WT mice aortas, phenylephrine pre-constricted, read-out: Emax of ACH dose response (vasorelaxation)",80.9 ± 4.6%
same,EC50,"IL-10(tm/tm) mouse aorta; old IL-10(tm/tm) mice aortas, n=6, read-out: EC50 of ACH mediated vasorelaxation",39.4 nM
same,Emax,"IL-10(tm/tm) mouse aorta; old IL-10(tm/tm) mice aortas, n=6, read-out: Emax of ACH mediated vasorelaxation",30.7 ± 9.3%
same,EC50,"IL-10(tm/tm) mouse aorta; young IL-10(tm/tm) mice aortas, phenylephrine pre-constricted, read-out: EC50 of ACH dose response (vasorelaxation)",50.1 nM
same,Emax,"IL-10(tm/tm) mouse aorta; young IL-10(tm/tm) mice aortas, phenylephrine pre-constricted, read-out: Emax of ACH dose response (vasorelaxation)",71.9 ± 5.7%
